According to US20240130367A1, “PLANT GROWTH PROMOTERS” (University of Durham, priority 2020, published 2024):
Where a name gives a salt, the structure may show the parent alone.

Tested on: Arabidopsis thaliana wild-type
Assay: Hypocotyl growth assay under reduced light
Assay type: in vivo
Settings: hypocotyl, 100 μM; for New length (cm) / New Length: three days; for New length (cm): trials 1, 2, 3 and SAM each with own DMSO control; for New Length: in cm
Source text: Arabidopsis thaliana wild-type seeds were from laboratory stocks of Columbia (Col-0) and Landsberg erecta (Ler-0) accessions. Arabidopsis thaliana is a dicot. The mutants of gid1 (J. Griffiths, et al., Plant Cell, 2006, 18, 3399-3414) were obtained from Dr. Steve Thomas (Rothamsted Research, UK) and were in a Col-0 background, whilst the della quintuple mutant (S. H. Feng et al. Nature, 2008, 451: 475-479) and ga1-5 (I. Fridborg et al. Plant Cell, 1999, 11: 1019-1031) were in a Ler-0 background and was obtained from the Nottingham Arabidopsis Stock Centre (NASC). The A. thaliana line expressing RGA-GFP (A. L. Silverstone et al. The Plant Cell, 2001, 13: 1555-1565), Col-0 background was obtained from Prof. Keith Lindsey (Durham University, UK). Seeds were plated out 1×MS medium pH 5.8 (T. Murashige and F. Skoog (1962) Physiologia Plantarum 15: 473-497) in petri dishes with a concentration of either 0.8% or 1.2% (w/v) phytoagar for root and hypocotyl measurements, respectively. After sowing seeds were stratified on plates at 4° C. for a minimum of 48 h to achieve synchronous germination. Seedlings were grown for either 7 or 2 days for root and hypocotyl measurements, respectively, prior to treatment with chemicals. For hypocotyl measurements, seeds were sown on nylon mesh (acid resistant monofilament nylon filter mesh fabric; GZ, model number H20M). Seedling were grown in a Percival (CU-36L5D, CLF plant climatics, Emersacker, Germany) with a photoperiod of 16/8 h with a light intensity of either 150 μmol m^2 s^−1 or 50 μmol m^2 s^−1 for root and hypocotyl measurements, respectively, and a temperature of 20±1° C.
After growing as described above seedlings for root assays were transferred to 1.2% (w/v) agar plates containing each chemical at a final concentration of 100 μM (the addition of the chemicals was performed when media had cooled to 50° C. after autoclaving), with an equivalent concentration of DMSO as control. At this stage the positions of the root tips were marked on the petri dish. The plants were subsequently grown vertically and after a further 5 days images of the plates were scanned and the root growth that occurred during the 5 days on chemicals was measured using ImageJ software. 18 seedlings were measured for each treatment. For hypocotyl measurements the assay performed was adapted from de Lucas et al. (2008, supra). After growing seedlings as described above, the nylon mesh was transferred across to the plates containing chemical. The plants were then placed in vertical orientation for three days under reduced light intensity (by covering plates with 2 layers of 80 g·m^2 white paper) before the plates were scanned. The measurement of hypocotyl was done using ImageJ software. At least 15 seedlings were measured for each plate.
To determine the mechanism of A1 action via the GA/DELLA signaling pathway, the response of A1 in a series of GA synthesis/signalling mutants was investigated. For these assays the focus was on hypocotyl growth, because it is well established that DELLA can inhibit the binding of PIFs to their target promoter leading to a reduction in GA-regulated hypocotyl growth (A. Castillon, H. Shen and E. Huq (2007) Trends in Plant Science, 12: 514-521.; de Lucas et al. 2008, supra; S. H. Feng et al. 2008, supra. To establish the use of A1 in this assay, hypocotyl growth was first tested by growing the seedlings on agar plates containing A1, with GA and PAC used as positive and negative controls, respectively, for three days in reduced light conditions to achieve a balance between maximum and minimum hypocotyl growth. […] Having established the hypocotyl assay, DELLA-dependence of the A1 effect was then confirmed genetically. To test this, a mutant line that lacks all DELLA (GAI, RGA, RGL1, RGL2 and RGL3) function was used.
The effect of additional compounds on hypocotyl growth was investigated using the same methods as described above (100 μM of each compound was used). […]

[1] = relative to the DMSO control of the same trial

Compound: Cl.NCCNS(=O)(=O)c1cccc2ccncc12 [JAR31, N-(2′-aminoethyl)isoquinoline-8-sulfonamide Hydrogen Chloride]
- New length (cm): 0.274 cm
- Relative growth (cm) [1]: 0.166

Compound: Cl.NCCNS(=O)(=O)c1ccc(-c2ccccc2)cc1 [JAR479, N-(2′-aminoethyl)-[1,1″-biphenyl]-4-sulfonamide Hydrochloride]
- New Length: 0.7771
- Relative growth (cm) (relative to DMSO control): 0.1335

Compound: Cl.NCCNS(=O)(=O)c1ccc2c3c(cccc13)C(=O)N2 [JAR67, N-(2′-aminoethyl)-1,8-naphtholactam-5-sulfonamide Hydrogen Chloride]
- New length (cm): 0.187 cm
- Relative growth (cm) [1]: −0.2241

Compound: COc1cccc(S(=O)(=O)NCCN)c1.Cl [JAR490, N-(2′-aminoethyl)-3-methoxybenzene-1-sulfonamide Hydrochloride]
- New Length: 0.8299
- Relative growth (cm) (relative to DMSO control): 0.2107

Compound: CCOCCOc1ccc(S(=O)(=O)NCCN)c2ccccc12.Cl [JAR145, N-(2′-aminoethyl)-4-(2″-ethoxyethoxy)naphthalene-1-sulfonamide Hydrogen Chloride]
- New length (cm): 0.6424 cm
- Relative growth (cm) [1]: 0.5965

Compound: CCCCCOc1ccc2ccccc2c1S(=O)(=O)NCCN.Cl [JAR68, N-(2′-aminoethyl)-2-pentoxynaphthalene-1-sulfonamide Hydrogen Chloride]
- New length (cm): 0.197 cm
- Relative growth (cm) [1]: −0.1826

Compound: CN(CCN)S(=O)(=O)c1cccc2ccccc12 [JAR491, N-(2′-aminoethyl)-N-methylnaphthalene-1-sulfonamide]
- New Length: 0.8285
- Relative growth (cm) (relative to DMSO control): 0.2085

Compound: CCOC(=O)CN(CCN)S(=O)(=O)c1cccc2ccccc12.Cl [SAM3, ethyl 2″-[N-(2′-aminoethyl)naphthalene-1-sulfonamido]acetate Hydrogen Chloride]
- New length (cm): 0.272 cm
- Relative growth (cm) [1]: 0.3807

Compound: CCOC(=O)C(C)N(CCN)S(=O)(=O)c1cccc2ccccc12.Cl (centres unmarked) [SAM4, ethyl 2-[N-(2-azaniumylethyl)naphthalene-1-sulfonamido]propanoate Chloride]
- New length (cm): 0.228 cm
- Relative growth (cm) [1]: 0.1574

Compound: CCCCCOc1ccc(S(=O)(=O)NCCN)c2ccccc12.Cl [JAR70, N-(2′-aminoethyl)-4-pentoxynaphthalene-1-sulfonamide Hydrogen Chloride]
- New length (cm): 0.173 cm
- Relative growth (cm) [1]: −0.2822

Compound: NCCNS(=O)(=O)c1cccc2c(Cl)cccc12 [JAR482, N-(2′-aminoethyl)-5-chloronaphthalene-1-sulfonamide Hydrochloride]
- New Length: 0.5888

Compound: NCCCNS(=O)(=O)c1cccc2ccccc12 [JAR481, N-(3′-aminopropyl)naphthalene-1-sulfonamide Hydrochloride]
- New Length: 0.8072
- Relative growth (cm) (relative to DMSO control): 0.1775

Compound: CNCCNS(=O)(=O)c1cccc2ccccc12 [JAR493, N-[2′-(methylamino)ethyl]naphthalene-1-sulfonamide Hydrochloride]
- New Length: 0.897
- Relative growth (cm) (relative to DMSO control): 0.3085

Compound: CNc1ccc(S(=O)(=O)NCCN)c2nonc12.Cl [JAR143, 7-(methylamino)-N-(2′-aminoethyl)-2,1,3-benzoxadiazole-4-sulfonamide Hydrogen Chloride]
- New length (cm): 0.2847 cm
- Relative growth (cm) [1]: −0.2925

Compound: CCCCCCOc1ccc(S(=O)(=O)NCCN)cc1.Cl [JAR72, N-(2′-aminoethyl)-4-hexoxybenzene-1-sulfonamide Hydrogen Chloride]
- New length (cm): 0.195 cm
- Relative growth (cm) [1]: −0.1909

Compound: NCCNS(=O)(=O)c1ccc([N+](=O)[O-])cc1 [JAR483, N-(2′-aminoethyl)-4-nitrobenzene-1-sulfonamide Hydrochloride]
- New Length: 0.8707
- Relative growth (cm) (relative to DMSO control): 0.2701

Compound: NCCNS(=O)(=O)c1ccccc1F [JAR480, N-(2′-aminoethyl)-2-fluorobenzene-1-sulfonamide Hydrochloride]
- New Length: 0.8424
- Relative growth (cm) (relative to DMSO control): 0.2289

Compound: NCCNS(=O)(=O)c1cccc2cccnc12 [JAR13, N-(2′-aminoethyl)quinoline-8-sulfonamide]
- New length (cm): 0.212 cm
- Relative growth (cm) [1]: −0.09787

Compound: O=S(=O)(NCCO)c1cccc2ccccc12 [JAR88, N-(2-hydroxyethyl)naphthalene-1-sulfonamide]
- New length (cm): 0.2827 cm
- Relative growth (cm) [1]: −0.2975

Compound: COc1ccc2ccccc2c1S(=O)(=O)NCCN.Cl [JAR36, N-(2′-aminoethyl)-2-methoxynaphthalene-1-sulfonamide Hydrogen Chloride]
- New length (cm): 0.329 cm
- Relative growth (cm) [1]: 0.4

Compound: Cl.NCCNS(=O)(=O)c1cccc2ncccc12 [JAR30, N-(2′-aminoethyl)-quinoline-5-sulfonamide Hydrogen Chloride]
- New length (cm): 0.333 cm
- Relative growth (cm) [1]: 0.417

Compound: C=CCN(CCN)S(=O)(=O)c1cccc2ccccc12.Cl [SAM1, N-(2′-aminolethyl)-N-(prop-2″-en-1′-yl)naphthalene-1-sulfonamide Hydrogen Chloride]
- New length (cm): 0.193 cm
- Relative growth (cm) [1]: −0.0203

Compound: Cl.NCCNS(=O)(=O)c1cccc2cnccc12 [JAR32, N-(2′-aminoethyl)isoquinoline-5-sulfonamide Hydrogen Chloride]
- New length (cm): 0.202 cm

Compound: COc1ccccc1S(=O)(=O)NCCN.Cl [JAR69, N-(2′-aminoethyl)-2-methoxybenzene-1-sulfonamide Hydrogen Chloride]
- New length (cm): 0.316 cm
- Relative growth (cm) [1]: 0.3112

Compound: CCOCCOc1c(Cl)cc(S(=O)(=O)NCCN)c2ccccc12.Cl [JAR141, N-(2-azaniumylethyl)-3-chloro-4-(2-ethoxyethoxy)naphthalene-1-sulfonamide Chloride]
- New length (cm): 0.4387 cm
- Relative growth (cm) [1]: 0.09026

Compound: CCCc1ccc(S(=O)(=O)NCCN)cc1 [JAR489, N-(2-aminoethyl)-4-propylbenzene-1-sulfonamide]
- New Length: 0.9133
- Relative growth (cm) (relative to DMSO control): 0.3323

Compound: NCCNS(=O)(=O)c1cccc(F)c1 [JAR478, N-(2-aminoethyl)-3-fluorobenzene-1-sulfonamide Hydrochloride]
- New Length: 0.8424
- Relative growth (cm) (relative to DMSO control): 0.2289

Compound: COc1ccc(S(=O)(=O)NCCN)c2ccccc12.Cl [JAR33, N-(2′-aminoethyl)-4-methoxynaphthalene-1-sulfonamide Hydrogen Chloride]
- New length (cm): 0.2986 cm
- Relative growth (cm) [1]: 0.2705

Compound: Cl.NCCNS(=O)(=O)C1CCCCC1 [JAR488, N-(2′-aminoethyl)cyclohexanesulfonamide Hydrochloride]
- New Length: 0.668
- Relative growth (cm) (relative to DMSO control): −0.02555

Compound: CCOCCOc1ccc2ccccc2c1S(=O)(=O)NCCN.Cl [JAR144, N-(2′-aminoethyl)-2-(2″-ethoxyethoxy)naphthalene-1-sulfonamide Hydrogen Chloride]
- New length (cm): 0.6007 cm
- Relative growth (cm) [1]: 0.4927

Compound: CC(C)(C)c1ccc(S(=O)(=O)NCCN)cc1 [JAR484, N-(2′-aminoethyl)-4-tent-butylbenzene-1-sulfonamide Hydrochloride]
- New Length: 0.8713
- Relative growth (cm) (relative to DMSO control): 0.271

Compound: CCCCCCOc1ccccc1S(=O)(=O)NCCN.Cl [JAR73, N-(2′-aminoethyl)-2-hexoxybenzene-1-sulfonamide Hydrogen Chloride]
- New length (cm): 0.202 cm
- Relative growth (cm) [1]: −0.1618
